The target in assay [1] is T1, fl-HDAC4 (wild-type) (Homo sapiens, UniProt P56524).
T1 construct: Full-length (fl) [A.A. 1-1082] recombinant human histone deacetylase 4 (rhHDAC4) protein; FLAG (N); GST (given as 'with or without'); made in house; host or cells: HEK293-T
The assay can be described thus: SPR binding analysis TasQ / fl-HDAC4. How it is done:
(§1) Surface Plasmon Resonance (SPR) Binding Analysis. SPR analysis was performed on the Biacore 3000™ system using CM5 sensor chips, certified buffers (HBS-P—10 mM HEPES, 0.15 M NaCl, pH 7.4, containing 0.005% v/v Surfactant P; HBS-EP-HBS-P with 3 mM EDTA) and reagents for immobilization and surface regeneration from Biacore, GE Healthcare, Uppsala Sweden. Evaluation of sensorgrams was performed using the BIA-evaluation Software version 4.1 and GraphPad Prism 4. Buffer of protein reagents were changed to HBS-P on Zeba spin desalting columns (Thermo Scientific) prior to being used in SPR analysis (Isaacs 2013).
A. Binding of wild-type and mutant forms of HDAC4 to immobilized TasQ. TasQ (ABR-215050; mol wt 406.4) was dissolved as a 40 mM solution in water with 1.5 equivalents of NaOH. TasQ with an amino-linker [i.e. —(CH2)2O(CH2)2—NH2](ABR-225180) in amide nitrogen position was used for amine coupling on to a Biacore CM5 sensor chip. A 1 mg/mL solution of ABR-225180 in HBS-P buffer was prepared and immobilized on a CM5 chip by injection at a flow rate of 5 or 10 μL/min until a stable response level was reached. Interaction of various HDAC4 forms with immobilized TasQ was studied by injection over this surface in HBS-P buffer containing 10 or 20 μM ZnCl2. Bound HDAC4 was removed by a pulse of 3 mM EDTA in HBS-P or 0.5 to 6.25 mM NaOH in water. In a second series of experiments, the ability of TasQ in solution to displace this binding was studied by pre-incubation of HDAC4 with TasQ as competitor.
B. Binding of TasQ to immobilized HDAC4 and NCoR1. Different variants of HDAC4 (full-length wild-type and mutant forms and the truncated protein) and full-length NCoR1 were immobilized on a CM5 chip using random amine coupling. Briefly, proteins were dissolved in 10 mM sodium acetate buffer at pH 5.0 or 5.5 and immobilized to the aimed level using the standard protocol from GE Healthcare. Serially diluted TasQ in HBS-P buffer with 10 or 20 μM Zn was injected (for 2 or 3 min at a flow rate of 30 μl/min) either directly or after a 1st injection of 1 mM DTT to reduce cysteines in the zinc conformation site in HDAC4. Regeneration was made with a short pulse of HBS-EP.
To evaluate the conformational requirements for TasQ's binding to HDAC4, surface plasmon resonance (SPR) analysis was utilized. To maximize conformational flexibility, TasQ is immobilized onto the surface of a Biacore CM5 sensor chip via an amino-linker [i.e. —(CH2)2—O—(CH2)2—NH2] in its amide nitrogen position.
By comparison, Linomide even at >30 μM in solution binds only 10-15% of the immobilized fl-HDAC4 protein despite the presence of Zn^+2 (FIG. 14). […] The fact that the KD for binding of soluble TasQ to immobilized fl-HDAC4 is higher than the KD for binding of soluble fl-HDAC4 with immobilized TasQ is predictable. This is because the conformational dynamics of fl-HDAC4 protein immobilized on the chip are more restrictive due to the multiple random amine coupling than the conformational dynamics of TasQ immobilized via a single amino-linker.
To address this possibility, a competitive binding assay was developed based upon the ability of TasQ in solution to compete with immobilized TasQ on the SPR-chip for binding to fl-HDAC4.
In general terms: In SPR one partner is held on a chip, and binding of the other changes the refractive index at the surface.

Assay [2] deals with T2, HDAC4-NCoR1 complex (Homo sapiens, UniProt P56524).
T2 construct: Full-length (fl) [A.A. 1-1082] recombinant human histone deacetylase 4 (rhHDAC4) protein; FLAG (N); GST (given as 'with or without'); host or cells: HEK293-T (HDAC4)
Kind of assay: SPR inhibition of HDAC4-NCoR1 interaction. Format: binding. As for the experimental part: as §1
C. Inhibition of HDAC4-NCoR1 interaction by TasQ. The interaction between HDAC4 and NCoR1 was studied either by injecting NCoR over immobilized HDAC4 or with an alternative orientation where HDAC4 was passed over a surface with covalently coupled NCoR1. Whether TasQ can inhibit the formation of the functional HDAC4-NCoR1 complex was tested by pre-incubation with NCoR1 or HDAC4.
To confirm that TasQ inhibits formation of the functional complex between HDAC4 and NCoR1, fl-NCoR1 in solution was injected over immobilized fl-HDAC4 after pre-incubation with TasQ in solution at concentrations ranging from 1 to 100 μM (FIG. 19). […] TasQ in solution inhibits this strong interaction by 50% at 10 μM (FIG. 20). […]

Drawing on patent US20250059139A1, “COMPOUNDS FOR TREATMENT OF CANCER” (THE JOHNS HOPKINS UNIVERSITY, priority 2021, published 2025), this text covers IC50, Kd and inhibition for one compound.

SMILES strings stand for the structures. Like-named read-outs stand apart in the source and are kept apart here.

T1 sequence (P56524 whole entry): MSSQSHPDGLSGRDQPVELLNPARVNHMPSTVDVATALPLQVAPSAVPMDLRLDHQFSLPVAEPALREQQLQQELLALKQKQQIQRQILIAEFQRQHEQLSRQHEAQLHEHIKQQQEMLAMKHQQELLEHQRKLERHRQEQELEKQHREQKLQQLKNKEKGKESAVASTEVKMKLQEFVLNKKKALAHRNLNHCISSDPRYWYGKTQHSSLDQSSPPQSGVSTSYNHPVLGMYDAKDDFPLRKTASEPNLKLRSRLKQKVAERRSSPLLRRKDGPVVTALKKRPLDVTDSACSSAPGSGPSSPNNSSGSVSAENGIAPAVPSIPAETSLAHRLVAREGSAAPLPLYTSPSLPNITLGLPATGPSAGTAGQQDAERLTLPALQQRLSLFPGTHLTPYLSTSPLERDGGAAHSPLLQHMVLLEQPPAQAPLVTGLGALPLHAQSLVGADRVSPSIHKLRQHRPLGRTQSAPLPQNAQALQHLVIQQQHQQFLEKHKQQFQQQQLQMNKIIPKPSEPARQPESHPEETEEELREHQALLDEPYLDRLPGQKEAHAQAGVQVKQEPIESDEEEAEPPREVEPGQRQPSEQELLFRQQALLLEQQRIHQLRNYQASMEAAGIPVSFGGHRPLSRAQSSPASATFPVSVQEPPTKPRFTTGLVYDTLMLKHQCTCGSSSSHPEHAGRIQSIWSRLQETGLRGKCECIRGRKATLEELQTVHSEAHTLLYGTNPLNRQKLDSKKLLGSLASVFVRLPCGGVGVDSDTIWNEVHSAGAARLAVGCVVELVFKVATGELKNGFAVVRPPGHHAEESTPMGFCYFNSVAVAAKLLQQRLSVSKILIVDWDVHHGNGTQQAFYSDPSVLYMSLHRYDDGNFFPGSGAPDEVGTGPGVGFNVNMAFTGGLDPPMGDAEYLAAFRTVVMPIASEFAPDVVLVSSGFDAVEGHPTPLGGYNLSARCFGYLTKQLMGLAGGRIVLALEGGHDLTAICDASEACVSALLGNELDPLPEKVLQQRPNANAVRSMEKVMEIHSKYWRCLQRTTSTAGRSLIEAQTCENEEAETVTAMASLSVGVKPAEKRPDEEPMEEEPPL
T2 sequence (P56524 whole entry, one chain of several): as the sequence (P56524 whole entry) above

The IC50 is the concentration that inhibits the measured activity by half. A word on the Kd: it is the equilibrium constant for the complex coming apart. The inhibition is the drop in the measured response relative to a control, in per cent. With `COc1cccc2c1c(O)c(C(=O)N(C)c1ccc(C(F)(F)F)cc1)c(=O)n2C` [TasQ, Tasquinimod], the IC50 in assay [1] (competitive SPR assay, read-out: IC50 of TasQ in solution to reduce binding of fl-wild-type HDAC4 to immobilized TasQ) amounted to 1300 nM; in assay [2] (sigmoidal dose-response fit, read-out: IC50 for competitive inhibition of fl-HDAC4 binding to immobilized NCoR1) it was 1100 nM. The Kd is 4900 nM in assay [1] (compound in solution, immobilized fl-HDAC4, n=4, read-out: KD); approximately 20 nM in assay [1] (fl-HDAC4 in solution, immobilized amine-linked TasQ, Zn2+, read-out: KD calculated from the on- and off-rates); approximately 130 nM in assay [1] (fl-HDAC4 in solution, immobilized amine-linked TasQ, Zn2+, read-out: KD from the steady state dose-response curve). Besides, the inhibition at 10 µM in assay [2] (at 10 μM, read-out: inhibition of fl-NCoR1 binding to immobilized fl-HDAC4) turned out to be 50%.
